Measured values reported in article PMC12412615, “Tailored SirReal-type inhibitors enhance SIRT2 inhibition through ligand stabilization and disruption of NAD^+ co-factor binding” (RSC Medicinal Chemistry, 2025).

Legend:
Format in all cases: biochemical
[1] = target: T1, human SIRT1 (Homo sapiens, UniProt Q96EB6); experiment: Fluorescence-based sirtuin subtype selectivity assay, SIRT1, single dose 50 μM; conditions: 50 μM compound; mean, n = 2
T1 construct: purchased Reaction Biology Corporation (Malvern, USA), contract assay
T1 sequence (Q96EB6 1-747): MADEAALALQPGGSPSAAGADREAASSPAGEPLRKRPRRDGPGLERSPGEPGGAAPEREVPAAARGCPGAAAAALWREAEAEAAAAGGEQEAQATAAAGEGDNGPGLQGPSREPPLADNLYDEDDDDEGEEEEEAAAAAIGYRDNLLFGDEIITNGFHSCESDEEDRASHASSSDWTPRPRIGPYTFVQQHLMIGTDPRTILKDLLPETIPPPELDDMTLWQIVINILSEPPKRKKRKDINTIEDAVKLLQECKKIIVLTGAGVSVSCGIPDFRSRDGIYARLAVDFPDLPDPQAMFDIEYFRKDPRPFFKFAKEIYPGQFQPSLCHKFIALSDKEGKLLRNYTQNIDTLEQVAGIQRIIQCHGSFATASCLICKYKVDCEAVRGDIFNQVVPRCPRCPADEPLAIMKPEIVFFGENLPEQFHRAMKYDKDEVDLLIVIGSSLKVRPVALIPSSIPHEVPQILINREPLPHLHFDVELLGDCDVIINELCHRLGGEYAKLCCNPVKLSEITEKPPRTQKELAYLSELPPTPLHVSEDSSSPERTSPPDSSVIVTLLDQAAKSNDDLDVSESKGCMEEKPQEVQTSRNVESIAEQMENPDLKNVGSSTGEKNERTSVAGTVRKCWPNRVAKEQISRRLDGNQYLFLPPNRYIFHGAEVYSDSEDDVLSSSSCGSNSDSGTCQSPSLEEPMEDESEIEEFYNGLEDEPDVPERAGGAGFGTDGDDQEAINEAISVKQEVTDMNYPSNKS
Method: (§1) IC50 values against SIRT2 are given as mean with standard deviations (n = 3). Inhibition percentages at 50 μM for SIRT1, 3 and 5 are given as mean without standard deviations (n = 2)
(§2) The determination of subtype selectivity against SIRT1, 3 and 5 was performed by measuring the residual enzyme activity after treatment with the corresponding inhibitor at a fixed concentration of 50 μM and subsequent calculation of the percentage inhibition.
(§3) The determination of inhibitory activity on the corresponding sirtuin enzymes was carried out based on a fluorescence-based assay commissioned by Reaction Biology Corporation (Malvern, USA) following an internal experimental protocol. Test substances were prepared in DMSO, delivered into the respective enzyme mixture (prepared with reaction buffer: Tris-HCl, pH = 8) and incubated for 10 minutes at 30 °C. Subsequently the substrate mixture (NAD^+ and a 7-amino-4-methylcoumarin-based fluorogenic peptide substrate) was added to initiate the deacetylation reaction. After 2 hours incubation at 30 °C, 2 mM nicotinamide (universal sirtuin inhibitor, to stop the reaction) and protease-based developer (to generate fluorescence by the cleavage of 7-amino-4-methylcoumarin) was added. At 30 °C 1 hour later, the respective fluorescence was measured (extinction/emission = 360 nm/460 nm). The inhibitory effect of the test compounds is indirectly proportional to the amount of converted fluorescent substrate standardized as 100% activity of the control without inhibitor. The test substances were tested in 10-dose IC50 triplicate mode, with 3-fold serial dilution starting at 50 μM final reaction concentration and if necessary, starting at 100 μM. For each serially diluted replicate of the triplicate, an IC50 value was determined by sigmoidal curve fitting, resulting in three IC50 values, from which the mean and corresponding standard deviation were subsequently calculated. Data processing was performed based on Prism 8.0.2 software (GraphPad Software, Boston, USA). Subtype selectivity on SIRT1, SIRT3 and SIRT5 was evaluated in a single dose duplicate mode at 50 μM final test compound concentration according to previous outlined internal protocol of Reaction Biology Corporation by determining the enzyme activity of the respective sirtuins in % (no inhibitor control as 100% activity).

[2] = target: T2, human SIRT3 (Homo sapiens, UniProt Q9NTG7); experiment: Fluorescence-based sirtuin subtype selectivity assay, SIRT3, single dose 50 μM; conditions: 50 μM compound; mean, n = 2
T2 construct: purchased Reaction Biology Corporation (Malvern, USA), contract assay
T2 sequence (Q9NTG7 1-399): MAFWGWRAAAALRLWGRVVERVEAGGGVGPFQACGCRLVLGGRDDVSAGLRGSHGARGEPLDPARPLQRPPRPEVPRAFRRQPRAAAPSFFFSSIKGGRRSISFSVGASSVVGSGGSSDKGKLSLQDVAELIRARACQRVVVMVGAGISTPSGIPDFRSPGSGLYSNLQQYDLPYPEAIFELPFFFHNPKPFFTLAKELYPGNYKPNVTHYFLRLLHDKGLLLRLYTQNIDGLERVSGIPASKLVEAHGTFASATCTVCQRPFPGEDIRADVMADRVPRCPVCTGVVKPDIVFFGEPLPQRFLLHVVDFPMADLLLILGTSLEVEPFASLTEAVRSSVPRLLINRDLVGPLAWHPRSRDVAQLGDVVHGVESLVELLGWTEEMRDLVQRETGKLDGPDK
Method: as §1, §2, §3

[3] = target: T3, human SIRT5 (Homo sapiens, UniProt Q9NXA8); experiment: Fluorescence-based sirtuin subtype selectivity assay, SIRT5, single dose 50 μM; conditions: 50 μM compound; mean, n = 2
T3 construct: purchased Reaction Biology Corporation (Malvern, USA), contract assay
T3 sequence (Q9NXA8 37-310): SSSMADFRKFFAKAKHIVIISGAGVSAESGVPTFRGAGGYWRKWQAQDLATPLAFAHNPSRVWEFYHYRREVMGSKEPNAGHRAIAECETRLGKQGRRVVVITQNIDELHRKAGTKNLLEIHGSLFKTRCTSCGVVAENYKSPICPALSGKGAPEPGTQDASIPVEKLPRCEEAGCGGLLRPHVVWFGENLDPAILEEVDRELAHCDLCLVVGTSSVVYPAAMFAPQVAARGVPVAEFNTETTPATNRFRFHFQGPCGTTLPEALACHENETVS
Method: as §1, §2, §3

[4] = target: T4, SIRT2 (Homo sapiens, UniProt Q8IXJ6); experiment: Fluorescence-based SIRT2 deacetylation inhibition assay (Reaction Biology Corporation); set-up: purchased Reaction Biology Corporation (Malvern, USA), contract assay; conditions: for IC50: fluorogenic peptide of p53 residues 379–382 (RHKK(Ac)-Fl), mean with standard deviation, n = 3
T4 sequence (Q8IXJ6 1-389): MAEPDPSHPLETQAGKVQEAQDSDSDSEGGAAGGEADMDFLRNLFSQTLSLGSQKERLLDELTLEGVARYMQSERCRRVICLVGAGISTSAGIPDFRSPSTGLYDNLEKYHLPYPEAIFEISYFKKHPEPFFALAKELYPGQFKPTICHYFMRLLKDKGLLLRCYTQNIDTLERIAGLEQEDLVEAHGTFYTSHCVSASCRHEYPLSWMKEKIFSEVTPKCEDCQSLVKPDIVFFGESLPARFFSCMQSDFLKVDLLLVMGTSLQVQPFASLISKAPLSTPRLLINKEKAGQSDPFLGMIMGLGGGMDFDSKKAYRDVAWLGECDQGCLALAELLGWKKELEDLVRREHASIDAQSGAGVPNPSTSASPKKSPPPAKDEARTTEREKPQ
Method: The determination of SIRT2 inhibitory activity was performed by Reaction Biology Corporation (Malvern, USA) with a fluorescence-based assay utilizing the fluorogenic peptide of p53 residues 379–382 (RHKK(Ac)-Fl). […]. […] […]. On the contrary, we observed a significant increase in potency by the introduction of halogens at the R^2 position (compounds 29–31), highlighting the importance of the position of the functional group modifications. […]. […] Additional factors such as the atomic radius and thus steric requirements of these halogens may also play a significant role in the increase in potency, where the smaller chlorine atom may experience less steric effects upon binding at the active site compared to the larger bromine and iodine atoms. […]. […] IC50 values against SIRT2 are given as mean with standard deviations (n = 3). Inhibition percentages at 50 μM for SIRT1, 3 and 5 are given as mean without standard deviations (n = 2)
as §3

Compound	Inhibition of SIRT1 in %@50 μM [1]	inhibition at 50 µM [2] [%]	inhibition at 50 µM [3] [%]	IC50 [4] [nM]	inhibition at 50 µM [1] [%]	Fold increase in SIRT2 potency compared to lead structure ([4]; 29 vs 24a, 46 vs SirReal2) [fold]
Cc1cc(C)nc(SCC(=O)Nc2cccc(COc3ccc(NC(=O)c4cnn(C)c4)cc3Br)c2)n1 [Compound 11, N-(3-Bromo-4-((3-(2-((4,6-dimethylpyrimidin-2-yl)thio)acetamido)benzyl)oxy)phenyl)-1-methyl-1H-pyrazole-4-carboxamide]	n.i.	24	13	81 ± 10		
Cc1cc(C)nc(SCC(=O)Nc2cccc(COc3ccc(NC(=O)c4cnn(C)c4)cc3C=O)c2)n1 [Compound 12, N-(4-((3-(2-((4,6-Dimethylpyrimidin-2-yl)thio)acetamido)benzyl)oxy)-3-formylphenyl)-1-methyl-1H-pyrazole-4-carboxamide]		24	16	147 ± 13	2	
Cc1cc(C)nc(SCC(=O)Nc2cccc(COc3ccc(NC(=O)c4cnn(C)c4)cc3B(O)O)c2)n1 [Compound 13, (2-((3-(2-((4,6-Dimethylpyrimidin-2-yl)thio)acetamido)benzyl)oxy)-5-(1-methyl-1H-pyrazole-4-carboxamido)phenyl)boronic acid]		5	10	294 ± 17	29	
Cc1cc(C)nc(SCC(=O)Nc2cccc(COc3ccc(NC(=O)c4cnn(C)c4)cc3C#N)c2)n1 [Compound 14, N-(3-Cyano-4-((3-(2-((4,6-dimethylpyrimidin-2-yl)thio)acetamido)benzyl)oxy)phenyl)-1-methyl-1H-pyrazole-4-carboxamide]		35	2	125 ± 18	6	
Cc1cc(C)nc(SCC(=O)Nc2cccc(COc3ccc(NC(=O)c4cnn(C)c4)c(Br)c3)c2)n1 [Compound 30, N-(2-Bromo-4-((3-(2-((4,6-dimethylpyrimidin-2-yl)thio)acetamido)benzyl)oxy)phenyl)-1-methyl-1H-pyrazole-4-carboxamide]		43	1	54 ± 7	4	
Cc1cc(C)nc(SCC(=O)Nc2cccc(COc3ccc(NC(=O)c4cnn(C)c4)c(I)c3)c2)n1 [Compound 31, N-(4-((3-(2-((4,6-Dimethylpyrimidin-2-yl)thio)acetamido)benzyl)oxy)-2-iodophenyl)-1-methyl-1H-pyrazole-4-carboxamide]		22	12	29 ± 2	5	
Cc1cc(C)nc(SCC(=O)Nc2cccc(COc3ccc(NC(=O)c4cnn(C)c4)c(C=O)c3)c2)n1 [Compound 32, N-(4-((3-(2-((4,6-Dimethylpyrimidin-2-yl)thio)acetamido)benzyl)oxy)-2-formylphenyl)-1-methyl-1H-pyrazole-4-carboxamide]	n.i.	7	6	184 ± 9		
Cc1cc(C)nc(SCC(=O)Nc2cccc(COc3ccc(NC(=O)c4cnn(C)c4)c(B(O)O)c3)c2)n1 [Compound 33, (5-((3-(2-((4,6-Dimethylpyrimidin-2-yl)thio)acetamido)benzyl)oxy)-2-(1-methyl-1H-pyrazole-4-carboxamido)phenyl)boronic acid]		24	14	202 ± 6	71	
Cc1cc(C)nc(SCC(=O)Nc2cccc(COc3ccc(NC(=O)c4cnn(C)c4)c(C#N)c3)c2)n1 [Compound 34, N-(2-Cyano-4-((3-(2-((4,6-dimethylpyrimidin-2-yl)thio)acetamido)benzyl)oxy)phenyl)-1-methyl-1H-pyrazole-4-carboxamide]		31	4	91 ± 7	23	
Cc1cc(C)nc(SCC(=O)Nc2ncc(Cc3cccc4ccc(C#N)cc34)s2)n1 [Compound 46, N-(5-((7-Cyanonaphthalen-1-yl)methyl)thiazol-2-yl)-2-((4,6-dimethylpyrimidin-2-yl)thio)acetamide]		9	8	122 ± 8	6	2
Cc1cc(C)nc(SCC(=O)Nc2ncc(Cc3cccc4ccc(CC#N)cc34)s2)n1 [Compound 47, N-(5-((7-(Cyanomethyl)naphthalen-1-yl)methyl)thiazol-2-yl)-2-((4,6-dimethylpyrimidin-2-yl)thio)acetamide]	n.i.	15	2	235 ± 19		
Cc1cc(C)nc(SCC(=O)Nc2ncc(Cc3cccc4ccc(B(O)O)cc34)s2)n1 [Compound 48, (8-((2-(2-((4,6-Dimethylpyrimidin-2-yl)thio)acetamido)thiazol-5-yl)methyl)naphthalen-2-yl)boronic acid]		12	23	235 ± 36	19	
